This note sets out measurements from paper PMC3731256, “Optimization of Substituted 6-Salicyl-4-Anilinoquinazoline Derivatives as Dual EGFR/HER2 Tyrosine Kinase Inhibitors” (PLoS ONE, 2013).

For one series, the system named is A549 cells. In words: Antiproliferation WST-1 assay, A549. The series is classed as cell-based, human. The protocol: (§1) WST-1 is better than MTT for analyzing cell proliferation, because it can be reduced to soluble formazan by dehydrogenase in mitochondria and has little toxicity to cells. Cell proliferation was determined using WST-1 dye (Beyotime Inst Biotech, China) according to manufacture’s instructions. Brieﬂy, 5 × 10^3 cells per well were seeded in a 96-well plate, grown at 37 ℃ for 24 h, and then placed in serum-starved conditions for a further 6 h. Subsequently, cells were treated with compounds (Table 1) at increasing concentrations in the presence of 10% FBS for 24 or 48h. After 10 µL WST-1 dye was added to each well, cells were incubated at 37 ℃ for 2 h and the absorbance was ﬁnally determined at 450 nm using a microplate reader.

A further series concerns MCF-7 cells. In words: Antiproliferation WST-1 assay, MCF-7. The series is classed as cell-based, human. To be noted: Homo sapiens. The protocol:
as §1

The test system of the next series is A431 cells. In words: Antiproliferation WST-1 assay, A431. The series is classed as cell-based, human. As to conditions: Homo sapiens, A-431, WST-1 assay; A431, overexpression of EGFR; read-out: Cellular IC50, A431. The protocol: as §1
Background: Tetrazolium assays rely on reduction of a dye to a coloured formazan, in cell work by metabolically active cells.

A further series has as its target T1, human EGFR (Homo sapiens, UniProt P00533).
T1 construct: the cytoplasmic domain (amino acids 669-1210) of human EGFR; FLAG (DYKDDDD) (N); made in house
Put plainly: EGFR kinase assay ([γ-32P] ATP, poly-Glu-Tyr). The series is classed as biochemical. To be noted: phosphorylation of poly-Glu-Tyr copolymer; mean, >1 determination; read-out: Enzyme activity IC50 against EGFR kinase. On the procedure:
(§2) The expressed HER2 kinase and EGFR kinase were purified by anti-FLAG M2 affinity gel (Sigma-Aldrich, USA). The HER2 and EGFR kinase assays were performed using radiolabeled [γ-^32P] ATP (GEHealthcare, USA) in 96-well plates. The kinase reactions were performed in 50 mmol/L Tris-HCl, pH7.5, 5 mmol/L MnCl2, 0.01% Tween-20 and 2 mmol/L DTT containing 0.9 μCi of [γ-^32P] ATP per reaction, 50 μmol/L ATP, 5 μg/mL poly-Glu-Tyr (4:1) and 0.25 μg/mL of purified Her2 or EGFR cytoplasmic domain in a total volume of 50 μL. […] Kinase reactions were initiated by adding ATP. After the kinase reaction incubated for 10 minutes at room temperature, reactions were terminated by the addition of 10% (final concentration) trichloroacetic acid. The [γ-^32P]-phosphorylated proteins were filtered in a harvest plate (Millipore, USA) with a cell harvester (PerkinElmer, USA) and washed free of [γ-^32P] ATP with 3% phosphoric acid. The plates were dried, followed by the addition of 25 μL of MicroScintO (PerkinElmer, USA). Radioactivity was counted by a Topcount scintillation counter (PerkinElmer, USA).

For a further series, the target named is T2, human HER2 (Homo sapiens, UniProt P04626).
T2 construct: The cytoplasmic domain (amino acids 676-1255) of human HER2; FLAG (DYKDDDD) (N); made in house
Put plainly: HER2 kinase assay ([γ-32P] ATP, poly-Glu-Tyr). The series is classed as biochemical. To be noted: phosphorylation of poly-Glu-Tyr copolymer; mean, >1 determination; read-out: Enzyme activity IC50 against HER2 kinase. The protocol:
as §2

In a further series the test system is H1975 cells. In words: Antiproliferation WST-1 assay, H1975. The series is classed as cell-based. As to conditions: Homo sapiens, NCI-H1975, NSCLC, EGFR L858R/T790M. On the procedure: as §1
The test system of the next series is MDA-MB-453 cells. In words: Antiproliferation WST-1 assay, MDA-MB-453. The series is classed as cell-based. To be noted: Homo sapiens, breast cancer, HER-2++, PTEN deficiency. The protocol:
as §1

The test system of another series is H1781 cells. Put plainly: Antiproliferation WST-1 assay, H1781. The series is classed as cell-based. As to conditions: NCI-H1781, NSCLC, HER-2 G776ins V_G/C, lapatinib-resistant. The protocol:
as §1

Where [1] appears, read: WST-1 assay, A549 carcinomic human alveolar basal epithelial cell, read-out: Cellular IC50, A549.
[2] abbreviates: MCF7, WST-1 assay, MCF-7 breast cancer, Her2/neu overexpression, read-out: Cellular IC50, MCF-7.

SMILES strings stand for the structures. Like-named read-outs stand apart in the source and are kept apart here.

T2 sequence (P04626 676-1255): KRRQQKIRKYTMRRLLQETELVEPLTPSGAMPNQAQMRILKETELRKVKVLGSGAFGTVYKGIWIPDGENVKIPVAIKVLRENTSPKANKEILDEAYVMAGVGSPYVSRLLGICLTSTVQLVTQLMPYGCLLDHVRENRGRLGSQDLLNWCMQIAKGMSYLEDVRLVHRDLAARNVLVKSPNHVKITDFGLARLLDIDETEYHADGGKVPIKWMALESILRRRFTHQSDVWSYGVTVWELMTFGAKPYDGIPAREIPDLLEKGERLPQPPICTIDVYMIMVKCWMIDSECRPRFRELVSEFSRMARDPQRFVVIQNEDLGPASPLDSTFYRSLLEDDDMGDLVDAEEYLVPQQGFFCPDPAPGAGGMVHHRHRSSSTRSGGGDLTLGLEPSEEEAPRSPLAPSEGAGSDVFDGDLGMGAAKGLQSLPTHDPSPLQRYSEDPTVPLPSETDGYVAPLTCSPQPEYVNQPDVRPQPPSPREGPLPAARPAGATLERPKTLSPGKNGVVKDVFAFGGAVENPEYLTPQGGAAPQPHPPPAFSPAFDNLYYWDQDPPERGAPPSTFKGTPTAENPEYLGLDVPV
T1 sequence (P00533 669-1210): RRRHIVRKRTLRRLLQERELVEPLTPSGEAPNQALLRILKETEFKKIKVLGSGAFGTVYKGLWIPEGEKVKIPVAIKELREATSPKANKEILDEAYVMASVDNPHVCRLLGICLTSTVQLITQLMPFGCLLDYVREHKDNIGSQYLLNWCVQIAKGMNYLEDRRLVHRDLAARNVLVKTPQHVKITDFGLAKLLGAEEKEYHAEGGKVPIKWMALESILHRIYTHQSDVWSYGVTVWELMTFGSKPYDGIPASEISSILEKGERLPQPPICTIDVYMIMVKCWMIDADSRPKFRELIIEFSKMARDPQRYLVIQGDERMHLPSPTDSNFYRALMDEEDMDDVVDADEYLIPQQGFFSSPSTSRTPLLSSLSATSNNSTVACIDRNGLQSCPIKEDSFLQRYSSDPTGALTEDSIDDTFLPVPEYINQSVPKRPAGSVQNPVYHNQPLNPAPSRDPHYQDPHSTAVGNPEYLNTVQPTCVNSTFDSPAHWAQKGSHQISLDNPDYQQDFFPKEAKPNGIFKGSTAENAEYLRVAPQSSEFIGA

On to `Oc1c(Br)cc(Br)cc1CNc1ccc2ncnc(Nc3cccc(Cl)c3)c2c1` [Compound 16, 2,4-dibromo-6-((4-(3-chlorophenylamino)quinazolin-6-ylamino)methyl)phenol], for which the melting point lay in the range of 207 to 209 °C. Moreover, in the series on A549 cells (setting [1]), the 50% inhibitory concentration (IC50) was determined as 1.65 ± 0.094 µM. Further, the IC50 in the series with MCF-7 cells (setting [2]) stood at 0.99 ± 0.006 µM. Also, the IC50 in the series on A431 cells is 1.32 ± 0.126 µM. Further, the IC50 on human EGFR turned out to be 0.89 ± 0.053 µM. For the same compound, the IC50 at human HER2 stood at 2.1 ± 0.0087 µM.
For `O=C(Nc1ccc2ncnc(Nc3cccc(Br)c3)c2c1)c1ccc(Cl)cc1O` [Compound 17, N-(4-(3-bromophenylamino)quinazolin-6-yl)-4-chloro-2-hydroxybenzamide], the melting point fell in the range of 274 to 277 °C. Further, the IC50 in the series with A549 cells (setting [1]) is 1.59 ± 0.035 µM. In the series on MCF-7 cells (setting [2]), the half-maximal inhibitory concentration (IC50) was 1.21 ± 0.029 µM. In addition, the IC50 with A431 cells was found to be 1.46 ± 0.027 µM. In addition, the 50% inhibitory concentration (IC50) on human EGFR stood at 1.2 ± 0.071 µM. For the same compound, on human HER2, the IC50 turned out to be 2.8 ± 0.0031 µM.
Compound `O=C(Nc1ccc2ncnc(Nc3cccc(Br)c3)c2c1)c1cc(Br)ccc1O` [Compound 18, 5-bromo-N-(4-(3-bromophenylamino)quinazolin-6-yl)-2-hydroxybenzamide] registered a melting point of 297 to 299 °C. Moreover, the IC50 in the series on A549 cells (setting [1]) came to 0.8 ± 0.004 µM. The IC50 with MCF-7 cells (setting [2]) came out at 1.23 ± 0.035 µM. In the series with A431 cells, the IC50 turned out to be 1.62 ± 0.008 µM. Moreover, the IC50 at human EGFR came to 1.3 ± 0.098 µM. Further, at human HER2, the IC50 was 1.6 ± 0.012 µM.
`O=C(Nc1ccc2ncnc(Nc3cccc(Br)c3)c2c1)c1cc(Cl)ccc1O` [Compound 19, N-(4-(3-bromophenylamino)quinazolin-6-yl)-5-chloro-2-hydroxybenzamide] displayed a melting point of 304 to 306 °C. Also, the IC50 with A549 cells (setting [1]) was found to be 1.77 ± 0.056 µM. Further, the IC50 in the series on MCF-7 cells (setting [2]) worked out at 1.12 ± 0.087 µM. The 50% inhibitory concentration (IC50) in the series with A431 cells is 1.28 ± 0.013 µM. In addition, on human EGFR, the 50% inhibitory concentration (IC50) is 1.07 ± 0.018 µM. Moreover, at human HER2, the IC50 was found to be 1.8 ± 0.009 µM.
The compound `O=C(Nc1ccc2ncnc(Nc3cccc(Br)c3)c2c1)c1cc(Br)cc(Br)c1O` [Compound 20, 3,5-dibromo-N-(4-(3-bromophenylamino)quinazolin-6-yl)-2-hydroxybenzamide] showed a melting point of 274 to 276 °C. Moreover, in the series with A549 cells (setting [1]), the IC50 stood at 1.8 ± 0.167 µM. In addition, in the series on MCF-7 cells (setting [2]), the half-maximal inhibitory concentration (IC50) came out at 1.31 ± 0.029 µM. Moreover, in the series on A431 cells, the IC50 came out at 1.39 ± 0.023 µM. For the same compound, at human EGFR, the half-maximal inhibitory concentration (IC50) was found to be 1.4 ± 0.023 µM. Moreover, on human HER2, the IC50 was found to be 2.1 ± 0.066 µM.
Regarding `O=C(Nc1ccc2ncnc(Nc3cccc(Cl)c3)c2c1)c1ccccc1O` [Compound 22, N-(4-(3-chlorophenylamino)quinazolin-6-yl)-2-hydroxybenzamide], the melting point was 117 to 120 °C. The IC50 with A549 cells (setting [1]) amounted to 1.39 ± 0.054 µM. Besides, in the series with MCF-7 cells (setting [2]), the IC50 amounted to 0.61 ± 0.005 µM. The half-maximal inhibitory concentration (IC50) in the series on A431 cells worked out at 0.74 ± 0.006 µM. Besides, the 50% inhibitory concentration (IC50) at human EGFR turned out to be 0.16 ± 0.007 µM. On human HER2, the 50% inhibitory concentration (IC50) was 0.84 ± 0.003 µM.
In turn, `O=C(Nc1ccc2ncnc(Nc3cccc(Cl)c3)c2c1)c1ccc(Cl)cc1O` [Compound 23, 4-chloro-N-(4-(3-chlorophenylamino)quinazolin-6-yl)-2-hydroxybenzamide] came in with a melting point of 211 to 213 °C. In addition, in the series on A549 cells (setting [1]), the IC50 stood at 1.36 ± 0.016 µM. The 50% inhibitory concentration (IC50) in the series with MCF-7 cells (setting [2]) is 0.55 ± 0.007 µM. Also, the IC50 in the series on A431 cells was found to be 0.84 ± 0.009 µM. Also, the half-inhibitory concentration (IC50) at human EGFR was found to be 0.32 ± 0.008 µM. On human HER2, the IC50 amounted to 1.2 ± 0.022 µM.
In turn, `Cc1ccc(C(=O)Nc2ccc3ncnc(Nc4cccc(Cl)c4)c3c2)c(O)c1` [Compound 24, N-(4-(3-chlorophenylamino)quinazolin-6-yl)-2-hydroxy-4-methylbenzamide] showed a melting point of 257 to 258 °C. In addition, the half-inhibitory concentration (IC50) in the series with A549 cells (setting [1]) came out at 1.3 ± 0.012 µM. For the same compound, the IC50 in the series with MCF-7 cells (setting [2]) was found to be 0.47 ± 0.004 µM. Moreover, in the series on A431 cells, the IC50 amounted to 0.63 ± 0.004 µM. For the same compound, the concentration for half-maximal inhibition (IC50) on human EGFR is 0.49 ± 0.003 µM. In addition, at human HER2, the IC50 was found to be 2 ± 0.182 µM.
Regarding `O=C(Nc1ccc2ncnc(Nc3cccc(Cl)c3)c2c1)c1cc(Br)ccc1O` [Compound 25, 5-bromo-N-(4-(3-chlorophenylamino)quinazolin-6-yl)-2-hydroxybenzamide], the melting point lay in the range of 299 to 301 °C. Also, the IC50 with A549 cells (setting [1]) amounted to 1.69 ± 0.078 µM. Also, the IC50 in the series with MCF-7 cells (setting [2]) stood at 0.74 ± 0.013 µM. Moreover, in the series on A431 cells, the half-maximal inhibitory concentration (IC50) came to 0.88 ± 0.011 µM. The IC50 on human EGFR was 0.58 ± 0.007 µM. For the same compound, the half-maximal inhibitory concentration (IC50) at human HER2 was determined as 2.6 ± 0.133 µM.
As for `CCOc1ccccc1C(=O)Nc1ccc2ncnc(Nc3cccc(Cl)c3)c2c1` [Compound 26, N-(4-(3-chlorophenylamino)quinazolin-6-yl)-2-ethoxybenzamide], the melting point is 111 to 113 °C. Moreover, the IC50 in the series with A549 cells (setting [1]) came out at 1.58 ± 0.093 µM. Further, in the series on MCF-7 cells (setting [2]), the half-maximal inhibitory concentration (IC50) amounted to 0.82 ± 0.082 µM. Also, the IC50 with A431 cells was found to be 0.76 ± 0.002 µM. Further, on human EGFR, the IC50 was 6.3 ± 0.076 µM. Besides, the concentration for half-maximal inhibition (IC50) at human HER2 came to 4.1 ± 0.091 µM.
The compound `O=C(Nc1ccc2ncnc(Nc3cccc(Br)c3)c2c1)c1ccc(Cl)cc1` [Compound 27, N-(4-(3-bromophenylamino)quinazolin-6-yl)-4-chlorobenzamide] returned a melting point of 230 to 232 °C. The IC50 with A549 cells (setting [1]) is 1.78 ± 0.034 µM. The concentration for half-maximal inhibition (IC50) in the series with MCF-7 cells (setting [2]) worked out at 1.29 ± 0.076 µM. In the series with A431 cells, the IC50 came to 1.48 ± 0.034 µM. The IC50 at human EGFR worked out at 7.7 ± 0.088 µM. For the same compound, the half-maximal inhibitory concentration (IC50) at human HER2 was found to be 4.6 ± 0.226 µM.
On to `CS(=O)(=O)CCNCc1ccc(-c2ccc3ncnc(Nc4ccc(OCc5cccc(F)c5)c(Cl)c4)c3c2)o1` [Lapatinib, reference compound], for which the IC50 turned out to be 3.9 ± 0.419 µM in the series on H1975 cells; 1.12 ± 0.022 µM in the series with A549 cells (Homo sapiens, A549, read-out: Cellular IC50, A549); 0.21 ± 0.003 µM with MCF-7 cells (MCF7, read-out: Cellular IC50, MCF-7); 0.72 ± 0.023 µM with MDA-MB-453 cells; 2.1 ± 0.034 µM with H1781 cells.

What is called melting point is the temperature of the solid-liquid transition. The IC50 is the point on the concentration scale where inhibition reaches its midpoint.
